# Values quoted from earlier work as cited in patent US8431806B2, “Liposomal formulations of anthracycline agents and cytidine analogs” (Celator Pharmaceuticals, Inc., priority 2004, dated 2013).
# Settings: in vivo
structure (smiles),measurement,setting,value
COc1cccc2c1C(=O)c1c(O)c3c(c(O)c1C2=O)C[C@@](O)(C(C)=O)C[C@@H]3O[C@H]1C[C@H](N)[C@H](O)[C@H](C)O1 [Daunorubicin],half-life for elimination,,19 h
same,oral absorption,po,low
